Experimental data reported in PMC12000251, “Evaluation of the Anti-Inflammatory Effects of Novel Fatty Acid-Binding Protein 4 Inhibitors in Microglia” (Journal of Neuroimmune Pharmacology, 2025).

What was measured:
LPS-activated BV-2 cells = assay: Extracellular nitrite (Griess assay) from LPS-activated BV-2 cells; type: cell-based, mouse; conditions: 50 µM, 1 µg/mL LPS 24 h
Method: BV-2 cells were cultured in DMEM/F-12 media supplemented with 10% (v/v) FBS and 1% (v/v) penicillin/streptomycin, and kept at 37 °C in a humidified incubator ([…], 5% CO2) for all studies. Cells with 80% confluency were used for experiments. At 24 h post-seeding, BV-2 cells were treated with either of the MFP compounds (at concentrations detailed below) or vehicle (0.1% (v/v) DMSO) and 1 µg/mL LPS for a period of 24 h. In some experiments (detailed in Results), BV-2 cells were exposed to MFP compounds for 2 h before a 24 h exposure to LPS and MFP compounds, and in some studies, in the presence of FABP4 siRNA using a 24 h treatment that we have previously employed (Low et al. [2021]). […]
For measurement of extracellular nitrite concentrations, the Griess assay was performed as per the manufacturer’s protocol (Molecular Probes, Eugene, OR) with minor changes. […] The absorbance of the media samples was measured on a Perkin-Elmer Enspire plate reader at 548 nm, with nitrite concentrations in media samples obtained by back calculating sample absorbance values back to a standard curve prepared through serial dilution of NaNO2 prepared in media.

[1] = target: T1, Recombinantly-expressed human FABP4 (Homo sapiens, UniProt P15090); assay: Isothermal titration calorimetry (ITC) binding affinity to FABP4; conditions: one-site binding model, read-out: KD (ITC titration of FABP4, Figure S1)
T1 construct: made in house
T1 sequence (P15090 whole entry): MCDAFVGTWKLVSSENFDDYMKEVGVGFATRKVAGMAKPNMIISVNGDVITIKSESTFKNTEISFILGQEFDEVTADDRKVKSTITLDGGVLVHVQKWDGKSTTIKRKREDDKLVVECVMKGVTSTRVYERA
Method: A prior fragment screen identified a series of bi-aryl sulfonamides that bound to FABP4. Analogues of this chemical sulfonamide scaffold were then purchased, which led to the identification of the compounds used in this study (MFP-0011462, MFP-0012314, MFP-0012318, and MFP-0012328). Their predicted LogP and tPSA values were calculated in Vortex v2020.1.117658-s (Dotmatics, Boston, MA). The binding affinity of these four compounds was characterised by isothermal titration calorimetry (ITC). ITC was carried out using an iTC200 microcalorimeter (MicroCal, United Kingdom) with a coin shaped sample cell (201.4 μL) with stirring at 1000 rpm at 25°C. Titrations were performed in an ITC buffer (50 mM sodium phosphate, 50 mM NaCl, pH 7.4 with 2% DMSO). Compounds were diluted from concentrated stocks in ITC buffer and loaded into the titration syringe at a concentration of 1 mM, with a final DMSO concentration of 2% (v/v). Recombinantly-expressed human FABP4 was prepared as described previously (Lee et al. [2015a]) in an identical buffer at a protein concentration of 80 μM and placed in the sample cell. A thermal equilibration step at 25°C was followed by an initial 180 s delay step and subsequently an initial 0.2 μL injection. 16 serial injections of the 1 mM compound solution (2 μL each) were made at intervals of 220 s with continuous stirring of the solution in the sample cell. The iTC200 control software was used to operate and acquire raw data as power (microcalories/sec) vs time (min). The data were processed using the Origin 7.0 software (MicroCal) and the binding affinity (KD) was calculated by fitting the data to a one-site binding model.

[2] = 1D 1H NMR aqueous solubility in phosphate buffer; type: physicochemical; conditions: kinetic from dmso stock, phosphate buffer pH 7.4 in D2O, 0.1% d6-DMSO, 25 °C, range 3.125–100 µM, read-out: Soluble in phosphate buffer up to (concentration)
Method: 1D ^1H NMR was employed to determine the solubility limits of the four MFP compounds and BMS309403 in phosphate buffer. This method has been commonly used to determine compound solubility in the drug discovery setting (Devine et al. [2014]; Lee et al. [2015b]; Lin et al. [2009]). A 100 mM of stock solution of each compound was first prepared in d6-DMSO. These stock solutions were then added into phosphate buffer (50 mM sodium phosphate, 25 mM NaCl, 100 µM of DSS, pH 7.4 in D2O) to achieve a final d6-DMSO concentration of 0.1% (v/v) which is equivalent to the DMSO concentration present in BV-2 cell culture experiments. All samples were inspected to note whether visible precipitates were formed. ^1H NMR spectra for all of the samples were acquired using Bruker Avance III 600 MHz spectrometer at 25 °C. Experimental data were acquired using a relaxation delay of 5 s with 128 scans, and water suppression using an excitation sculpting pulse scheme. Mestrelab Research 13.0 software was used to integrate the proton resonances of the compounds. A well-resolved peak (i.e. no overlaps with any other peaks) in the spectrum of each compound was chosen for integration, relative to the DSS peak (at 0 ppm). […] In addition, the chemical shifts of the resonances in the 1D ^1H NMR spectra were monitored.

Kd [1]: 316 nM | solubility [2]: ≥ 100 µM
Structure (SMILES): O=C(O)c1cccc(NS(=O)(=O)c2ccc(Cl)c(Cl)c2)c1 [MFP-0012328]
attenuation of LPS-mediated release of nitrite (LPS-activated BV-2 cells): 51.3%
